Columns and labels:
Young female SD rats = assay: Effect of Modafinil on uterus weight in female rats; assay type: in vivo; conditions: 200 mg/kg/day for 15 days
Protocol: EXPERIMENTAL ANIMAL: Young female SD rats of 25 days old were used. Food and drug administration was the sane as used in the Example 1.
EXPERIMENTAL PROTOCOL: 15 female rats for control were fed 3% starch paste 2 ml/day for 15 successive days. 15 female rats treated with Modafinil(prepared according to Example 1 in the U.S. Pat. No. 4,177,290) mixed with 3% starch paste for 200 mg/kg/day in 2 ml of starch paste a day. Animals were sacrificed on day 16 and the uterei were taken out. Every fresh uterus was weighed.

SD rats of both sexes = assay: Effect of Modafinil on sexual ability in rats; assay type: in vivo; conditions: 200 mg/kg/day for 15 days
Protocol: EXPERIMENTAL ANIMALS: SD rats of both sexes were used and feeding methods of the drug were the same as in the Example 1.
EXPERIMENTAL PROTOCOL: 15 males and 15 females for control fed with 3% starch paste for 15 days while 15 males and 15 females were is treated with 200 mg/kg/day of Modafinil(prepared according to Example 1 in the U.S. Pat. No. 4,177,290) for 15 days. On day 16 evening, each special cage was distributed by chance with 1 male and 1 female rat couple. For the first 2 hours of coinhabitation, the numbers of sexual intercourse movement of male along with acceptance of female were counted.

[1] = cited from earlier work
[2] = system: spermatozoa counts in rats; assay: Effect of Modafinil on spermatogenesis in rats; assay type: in vivo, SD male rats; conditions: for mean number of spermatozoa per gram weight of sperm ± S.D.: SD male rats, sperm from epididymis tail
Protocol: EXPERIMENTAL ANIMALS: SD male rats, 2 months old, weighing 210 to 260 g, were used for this experiment. All the animals were fed in the laboratory for a week before starting the experiment for accommodative purpose. The animals were distributed randomly into 5 experimental groups, 10 in each group. The room temperature was kept at 20 to 25° C. 4 groups of rats were administrated with Modafinil and 1 group for control.
METHODS AND PROTOCOLS: In treated groups, various doses of Modafinil were given by gavage as 200, 400, 600 and 800 mg/kg/day in rats. Modafinil(prepared according to Example 1 in the U.S. Pat. No. 4,177,290) was mixed with 3% starch paste, 2 ml for each rat per day, gavage feeding for successive 30 days. The controlled animals received the 3% starch paste without drug, with same amount for 30 successive days. The morphology, motility and number of the spermatozoa of the animals in each group were observed and counted. On days 31, all animals were killed. Spermatozoa in the sperm taken from epididymis tail were counted; the testes and prostates were taken out. Histological sections were made and examined under microscope.

Compound: NC(=O)C[S+]([O-])C(c1ccccc1)c1ccccc1 (stereo not drawn) [Modafinil, 2-[(Diphenylmethyl)sulfinyl]-N-Acetamide]
- mean uterus weight relative to controls (Young female SD rats): 158 % of that in Controls
- mean uterus weight (Mean+S.D.) (Young female SD rats; fresh uterus on day 16): 0.418 ± 0.082 g
- number of sexual intercourse (Mean±S.D.) (SD rats of both sexes; males and females treated, first 2 hours of coinhabitation on day 16): 5.0±1.2 times/2 hours/couple
- mean number of sexual intercourse relative to control (SD rats of both sexes; rats): 161 % of the control
- solubility in acetone ([1]; acetone): sparingly or slightly soluble
- solubility in cyclohexane ([1]; cyclohexane): insoluble
- solubility in methanol ([1]; methanol): sparingly or slightly soluble
- solubility in water ([1]; water): insoluble
- mean number of spermatozoa per gram weight of sperm ± S.D. ([2]; 200 mg/kg/day by gavage for 30 days): 819.8 ± 295.6 per gram weight of sperm
- mean number of spermatozoa per gram weight of sperm ± S.D. ([2]; 400 mg/kg/day by gavage for 30 days): 1753.8 ± 540.6 per gram weight of sperm
- mean number of spermatozoa per gram weight of sperm ± S.D. ([2]; 600 mg/kg/day by gavage for 30 days): 1706.0 ± 379.9 per gram weight of sperm
- mean number of spermatozoa per gram weight of sperm ± S.D. ([2]; 800 mg/kg/day by gavage for 30 days): 1656.0 ± 165.8 per gram weight of sperm
- histological examination: stages of normal spermatogenesis in the seminiferous tubules ([2]; Modafinil treated groups versus controls, testes sections): more distinct and regular than those in the controls
- histological examination: cell degeneration during the course of spermatogenesis ([2]; Modafinil treated groups, testes sections): No cell degeneration was found
- number of spermatozoa and motility ([2]; all Modafinil treated groups (200-800 mg/kg/day, 30 days), rats): remarkably increased with active motility
